The NIST ThermoML archive (doi:10.1016/j.fluid.2007.01.001)
Numbers after ± are expanded uncertainties.

Test: xn = mol fraction of the nth substance listed
Details: 101 kPa, Liquid; for viscosity: Capillary tube (Ostwald / Ubbelohde) method; for speed of sound: Frequency=2 MHz, Linear variable-path acoustic interferometer; for mass density: Pycnometric method

CCCCCC(C)O (stereo not given) [2-heptanol] + Cc1ccccc1
Details	mass density, 298.15 K [kg/m3]	mass density, 308.15 K [kg/m3]	speed of sound, 298.15 K [m/s]	speed of sound, 308.15 K [m/s]	viscosity, 298.15 K [mPa·s]	viscosity, 308.15 K [mPa·s]
x2 = 0	813.74 ± 0.69	804.88 ± 0.7	1314 ± 3	1274 ± 3	5.088 ± 0.41	3.683 ± 0.3
x2 = 0.0514	815.49 ± 0.7	806.49 ± 0.7	1309 ± 3	1267 ± 3	4.335 ± 0.35	3.171 ± 0.26
x2 = 0.1014	817.27 ± 0.7	808.2 ± 0.71	1303 ± 3	1261 ± 3	3.878 ± 0.31	2.776 ± 0.22
x2 = 0.1469	818.88 ± 0.71	809.75 ± 0.72	1298 ± 3	1256 ± 3	3.392 ± 0.27	2.459 ± 0.2
x2 = 0.2008	820.83 ± 0.71	811.62 ± 0.72	1293 ± 3	1251 ± 3	2.918 ± 0.23	2.155 ± 0.17
x2 = 0.2519	822.7 ± 0.72	813.37 ± 0.73	1288 ± 3	1246 ± 3	2.526 ± 0.2	1.875 ± 0.15
x2 = 0.3007	824.54 ± 0.73	815.12 ± 0.74	1283 ± 3	1243 ± 3	2.195 ± 0.18	1.665 ± 0.13
x2 = 0.348	826.33 ± 0.73	816.85 ± 0.74	1279 ± 3	1238 ± 3	1.9 ± 0.15	1.485 ± 0.12
x2 = 0.4006	828.45 ± 0.74	818.86 ± 0.75	1276 ± 3	1235 ± 3	1.622 ± 0.13	1.332 ± 0.11
x2 = 0.4526	830.61 ± 0.74	820.97 ± 0.75	1272 ± 3	1232 ± 3	1.396 ± 0.11	1.199 ± 0.096
x2 = 0.5002	832.62 ± 0.75	822.92 ± 0.75	1271 ± 3	1230 ± 3	1.24 ± 0.1	1.078 ± 0.087
x2 = 0.5501	834.9 ± 0.75	825.13 ± 0.76	1269 ± 3	1229 ± 3	1.064 ± 0.085	0.992 ± 0.08
x2 = 0.6011	837.36 ± 0.76	827.5 ± 0.77	1268 ± 3	1228 ± 3	0.931 ± 0.075	0.904 ± 0.073
x2 = 0.6574	840.16 ± 0.77	830.22 ± 0.77	1268 ± 3	1229 ± 3	0.853 ± 0.068	0.818 ± 0.066
x2 = 0.7011	842.5 ± 0.77	832.53 ± 0.77	1269 ± 3	1230 ± 3	0.778 ± 0.062	0.756 ± 0.061
x2 = 0.756	845.59 ± 0.77	835.62 ± 0.77	1273 ± 3	1234 ± 3	0.741 ± 0.059	0.679 ± 0.055
x2 = 0.8	848.22 ± 0.77	838.25 ± 0.77	1276 ± 3	1238 ± 3	0.691 ± 0.055	0.641 ± 0.051
x2 = 0.854	851.69 ± 0.77	841.71 ± 0.77	1283 ± 3	1243 ± 3	0.65 ± 0.052	0.57 ± 0.046
x2 = 0.9009	854.88 ± 0.77	844.95 ± 0.77	1289 ± 3	1250 ± 3	0.611 ± 0.049	0.518 ± 0.042
x2 = 0.9475	858.12 ± 0.75	848.5 ± 0.75	1296 ± 3	1258 ± 3	0.589 ± 0.047	0.501 ± 0.04
